Columns and labels:
[1] = system: isolated, working rat hearts; experiment: Test 3: Isolated, working rat hearts (Langendorff), coronary flow; design: species or system Wistar-Kyoto rats; details: 10^−6 mol/l; for Coronary flow: treated hearts, n=4
From the text: Pharmacol. 8 (Suppl. 10) (1986) S91-S99.
Test 3: Isolated, working rat hearts
Isolated hearts of Wistar-Kyoto rats (280-300 g body weight) are perfused with a constant perfusion pressure of 60 mmHg according to the method of Langendorff using an oxygen-saturated (95% O2, 5% CO2), nonrecirculating, modified Krebs-Henseleit buffer solution (118 mmol/l of NaCl, 4.7 mmol/l of KCl, 2.5 mmol/l of CaCl2, 1.6 mmol/l of MgSO4, 24.9 mmol/l of NaHCO3, 1.2 mmol/l of KH2PO4, 5.5 mmol/l of glucose, and 2.0 mmol/l of sodium pyruvate). For the measurement of the coronary flow, a catheter having an electromagnetic measuring head placed in the pulmonary artery was used. After a 15-minute equilibration period, the heart is converted into the working mode, in which a preload of 15 mmHg and an afterload of 60 mmHg is set. The working load of the heart remains constant during the entire test time of 90 minutes. Flow and pressure signals for the analysis are recorded by means of a PLUGSYS measuring system (Hugo Sachs Elektronik). The analysis of the data is carried out at a collection frequency of 500 Hz, averaged every 2 seconds, using the software Aquire Plus VI.21f (PO-NE-MAH).

[2] = system: human platelet-rich plasma; experiment: Test 4: Collagen-induced platelet aggregation in human platelet-rich plasma; format: cell-based; details: collagen + 30 μM compound, 37° C., 20 min incubation, n=6; collagen alone 92±2.7%
Protocol: The action of compounds of formula (I) on collagen-induced platelet aggregation was investigated in human platelet-rich plasma, which is described, for example, in G.V. Born et al., Nature (1962).
Human platelet-rich plasma (PRP) from 6 blood donors was incubated with the test compound at 37° C. for 20 min, then activated with collagen, and the maximal aggregation of the platelets was quantified in % via light transmission.

SMILES: CCCCOC(=O)NS(=O)(=O)c1sc(CC(C)C)cc1-c1ccc(Cn2c(-c3ccccc3)nc(OC)c2C=O)cc1 [Example 2, 5-Formyl-4-methoxy-2-phenyl-1-[[4-[2-(n-butyloxycarbonylsulfonamido)-5-isobutyl-3-thienyl]phenyl]methyl]imidazole]
- heart rate ([1]; during the entire experiment): unchanged
- Coronary flow ([1]; time 0 min): 8.92 ± 0.68 mL/min
- Coronary flow ([1]; time 5 min): 11.29 ± 0.90 mL/min
- Coronary flow ([1]; time 10 min): 12.17 ± 0.74 mL/min
- Coronary flow ([1]; time 15 min): 12.22 ± 0.10 mL/min
- platelet aggregation [2]: 52±5.7 % aggregation

From patent publication US6429222B2, “1-(p-thienylbenzyl)imidazoles as agonists of angiotensin (1-7) receptors, processes for their preparation, their use, and pharmaceutical preparations comprising them” (priority 1999, dated 2002)
